Data: the supplement of paper PMC10331698
± gives the standard deviation of the averaged measurements.

Columns and labels:
Assay in all cases: level (log10 ratio to DMSO vehicle control); higher = higher biomarker level / cell amount than vehicle control
[1] = compound: O=S(=O)(O)CCC(F)(F)C(F)(F)C(F)(F)C(F)(F)F [4:2 Fluorotelomer sulfonic acid]; conditions: in DMSO
Procedure: (§1)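 BioMAP Diversity Plus panel of 12 human primary cell co-culture systems (3C, 4H, LPS, SAg, BT, BF4T, BE3C, CASM3C, HDF3CGF, KF3CT, MyoF, Mphg). Compounds were added 1 h before stimulation and left for 24 h (MyoF 48 h; BT 72 h for soluble read-outs or 6 d for IgG). Biomarkers were read by ELISA, cytotoxicity by SRB, PBMC viability and proliferation by Alamar Blue. Each well value was divided by the mean of 8 DMSO control wells on the same plate and log10 transformed; duplicate blinded samples were tested at 4 concentrations.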

[2] = compound: C=CC(=O)OCC(F)(F)C(F)(F)C(F)(F)C(F)(F)COC(=O)C=C [1H,1H,6H,6H-Perfluorohexane-1,6-diol diacrylate]; conditions: 6700 nM; in DMSO
Procedure: as §1

[3] = compound: C=CC(=O)OCCC(F)(F)C(F)(F)C(F)(F)C(F)(F)C(F)(F)C(F)(F)C(F)(F)C(F)(F)F [8:2 Fluorotelomer acrylate]; conditions: in DMSO
Procedure: as §1

[4] = compound: OCCCCC(F)(F)C(F)(F)C(F)(F)C(F)(F)F [4:4 Fluorotelomer alcohol]; conditions: in DMSO
Procedure: as §1

[5] = compound: OCC(F)(F)C(F)(F)C(F)(F)C(F)(F)C(F)(F)C(F)(F)F [6:1 Fluorotelomer alcohol]; conditions: in DMSO
Procedure: as §1

[6] = compound: Cc1ccc(S(=O)(=O)OCC(F)(F)C(F)(F)C(F)(F)C(F)(F)C(F)(F)C(F)F)cc1 [1H,1H,7H-Perfluoroheptyl 4-methylbenzenesulfonate]; conditions: in DMSO
Procedure: as §1

[7] = compound: O=C(O)C(F)(F)C(F)(F)C(F)(F)C(F)(F)C(F)(F)C(F)(F)C(F)(F)F [Ammonium perfluorooctanoate]; conditions: in DMSO
Procedure: as §1

Test System | level (log10) ([1]; 6700 nM) | level (log10) ([1]; 20000 nM) | level (log10) ([1]; 60000 nM) | level (log10) [2] | level (log10) ([3]; 6700 nM) | level (log10) ([3]; 20000 nM) | level (log10) ([3]; 60000 nM) | level (log10) ([4]; 6700 nM) | level (log10) ([4]; 20000 nM) | level (log10) ([4]; 60000 nM) | level (log10) ([5]; 6700 nM) | level (log10) ([5]; 20000 nM) | level (log10) ([5]; 60000 nM) | level (log10) ([6]; 6700 nM) | level (log10) ([6]; 20000 nM) | level (log10) ([6]; 60000 nM) | level (log10) ([7]; 6700 nM) | level (log10) ([7]; 20000 nM) | level (log10) ([7]; 60000 nM)
CASM3C:CD106/VCAM-1 | 0.0035 ± 0.0078 | -0.0285 ± 0.025 | -0.0325 ± 0.005 | -0.128 ± 0.02 | -0.033 ± 0.0042 | -0.039 ± 0.037 | 0.004 ± 0.025 | -0.015 ± 0.03 | -0.0205 ± 0.00071 | 0.006 ± 0.027 | -0.0075 ± 0.026 | -0.001 ± 0.024 | -0.074 ± 0.034 | 0.001 ± 0.0028 | -0.011 ± 0.0014 | 0.0135 ± 0.005 | 0.0115 ± 0.015 | -0.0085 ± 0.013 | -0.021 ± 0.025
CASM3C:CD141/Thrombomodulin | -0.01 ± 0.031 | -0.021 ± 0.0099 | -0.0045 ± 0.029 | 0.0295 ± 0.016 | 0.0125 ± 0.011 | -0.005 ± 0.0071 | 0.009 ± 0.013 | -0.0065 ± 0.012 | -0.0065 ± 0.0078 | 0.0145 ± 0.032 | 0.0105 ± 0.044 | 0.023 ± 0.0028 | 0.023 ± 0.0099 | -0.002 ± 0.0014 | 0.032 ± 0.0085 | 0.067 ± 0.041 | 0.014 ± 0.035 | 0.0205 ± 0.036 | 0.0465 ± 0.032
CASM3C:CD142/Tissue Factor | -0.0115 ± 0.018 | 0.0115 ± 0.015 | 0.0095 ± 0.03 | -0.004 ± 0.059 | -0.036 ± 0.021 | -0.047 ± 0.05 | -0.0145 ± 0.032 | -0.0265 ± 0.015 | -0.0055 ± 0.0064 | 0.0285 ± 0.018 | 0.009 ± 0.017 | 0.0035 ± 0.0092 | -0.0315 ± 0.015 | -0.038 ± 0.014 | -0.057 ± 0.047 | -0.0205 ± 0.03 | 0.005 ± 0.028 | -0.009 ± 0.025 | -0.01 ± 0.024
CASM3C:CXCL8/IL-8 | 0.0035 ± 0.0035 | -0.0095 ± 0.026 | 0.0075 ± 0.025 | -0.015 ± 0.0028 | -0.0185 ± 0.012 | -0.0165 ± 0.00071 | -0.0085 ± 0.00071 | 0.0125 ± 0.0035 | 0.0095 ± 0.032 | 0.026 ± 0.045 | 0.0005 ± 0.015 | 0.004 ± 0.018 | 0 ± 0.0014 | -0.0095 ± 0.015 | -0.0055 ± 0.013 | -0.002 ± 0.0099 | 0.005 ± 0.0099 | 0.0085 ± 0.013 | 0.049 ± 0.033
CASM3C:CXCL9/MIG | -0.04 ± 0.03 | -0.0225 ± 0.013 | 0.006 ± 0.033 | -0.154 ± 0.031 | 0.026 ± 0.0071 | -0.0055 ± 0.066 | 0.011 ± 0.065 | 0.0115 ± 0.0035 | 0.0065 ± 0.026 | 0.0345 ± 0.059 | -0.003 ± 0.0014 | -0.0085 ± 0.0021 | -0.0305 ± 0.046 | -0.0085 ± 0.011 | -0.0195 ± 0.013 | 0.0135 ± 0.0021 | -0.001 ± 0.016 | 0.017 ± 0.017 | 0.0225 ± 0.028
CASM3C:HLA-DR | 0.0045 ± 0.0064 | -0.017 ± 0.014 | -0.0115 ± 0.00071 | -0.008 ± 0.12 | -0.0145 ± 0.0078 | -0.0045 ± 0.0021 | 0.022 ± 0.013 | -0.0045 ± 0.019 | -0.015 ± 0.0042 | 0.019 ± 0.027 | 0.0095 ± 0.0064 | 0.0135 ± 0.0021 | -0.0195 ± 0.035 | -0.009 ± 0.0028 | -0.021 ± 0.0014 | -0.002 ± 0.0071 | 0.0085 ± 0.012 | -0.0055 ± 0.0021 | 0.0015 ± 0.023
CASM3C:IL-6 | 0.0015 ± 0.0092 | -0.0065 ± 0.0078 | 0.001 ± 0.028 | -0.0735 ± 0.15 | -0.023 ± 0.0099 | -0.017 ± 0.027 | 0.0105 ± 0.05 | 0.0005 ± 0.016 | -0.0215 ± 0.025 | 0.0155 ± 0.077 | -0.008 ± 0.025 | -0.0165 ± 0.042 | -0.0005 ± 0.0021 | -0.035 ± 0.013 | -0.0435 ± 0.005 | -0.0155 ± 0.033 | -0.0035 ± 0.025 | -0.024 ± 0.048 | -0.018 ± 0.05
